Read-outs that look alike come from different tables or passages of the source.
Legend:
[1] = test system: H. contortus xL3s; test: H. contortus xL3 motility dose-response assay; format: cell-based, Haemonchus contortus; conditions: for IC50: read-out: Worm motility IC50 ± SD, H. contortus xL3s
Experimental: Immediately prior to use in assays, H. contortus L3s were exsheathed via exposure to 0.15 % (v/v) sodium hypochlorite for 20 min at 38 °C ([Preston et al., 2015]), achieving an exsheathment rate of 90 %. The larvae were then immediately washed five times with 50 mL of sterile physiological saline (pH 7.0) by centrifugation at 2000×g (5 min) and resuspended (at a concentration of 300 xL3s per 50 μL) in sterile (autoclaved) lysogeny broth (LB; cf. [Bertani, 1951]; [Taki et al., 2021b]), supplemented with final concentrations of 100 IU/mL of penicillin, 100 μg/mL of streptomycin and 0.25 μg/mL of amphotericin B (Fungizone®, cat. No. 15240-062, Gibco, Thermo Fisher Scientific, Waltham, MA, USA); this supplemented LB was designated LB*.
The dose-response assay for H. contortus followed a well-established protocol ([Taki et al., 2021b]); it was employed to evaluate the potency of hit compounds against this nematode. Test compounds were assessed individually for an effect on the motility of xL3s (10-point, 2-fold serial dilution in LB*, 40 μM–[…]). […] A solution of LB* was used as a negative control. The test compounds and positive control compounds (monepantel and moxidectin) were arrayed in triplicate across individual flat-bottom 96-well microplates, with six wells on each plate containing the negative control. Added to each well were 300 xL3s of H. contortus in 50 μL of LB* to give a final volume of 100 μL. Plates were then placed in a CO2 incubator (10 % (v/v) CO2, 38 °C, >90 % humidity; Forma, model no. 311, Thermo Fisher Scientific, USA). […] Over a period of 15 min, disturbance of an infrared beam in individual wells was recorded as an ‘activity count’. Raw ‘activity counts’ for individual wells were normalised to the negative-controls. The compound concentrations were log10-transformed and fitted using a variable slope four-parameter equation, using the ordinary least squares fit model, employing Prism (v.9.1.0 GraphPad Software, San Diego, CA, USA). Larval development was established at 168 h of incubation with compound, as described previously ([Preston et al., 2015]). The phenotypes of larvae were examined using a microscope ([Preston et al., 2015]) and recorded.

[2] = test system: C. elegans young adults; test: C. elegans young adult motility dose-response assay; format: cell-based, Caenorhabditis elegans; conditions: for IC50: read-out: Worm motility IC50 ± SD, C. elegans young adults
Experimental: The eggs were then washed five times with 15 mL of sterile M9 buffer (centrifugation at 500×g, 2 min). […] were collected from plates and washed twice with sterile M9 buffer by centrifugation (500×g, 2 min) to remove E. coli OP50, and then resuspended to a concentration of 100 larvae per 50 μL in sterile (autoclaved) LB*. The dose-response assay for C. elegans followed a well-established protocol ([Taki et al., 2021a]) and was employed to evaluate the potency of hit compounds against this nematode. […] Two compounds, monepantel (ZolvixTM; Elanco, Australia) and moxidectin ([…], France) were used as positive controls and prepared in the same manner as the test compounds. […] The test compounds and positive control compounds were arrayed in triplicate across individual flat-bottom 96-well microplates (cat. no. 3596; Corning, Corning, NY, USA), with six wells on each plate containing the negative control. Added to each well were 100 C. elegans in 50 μL of LB* to give a final volume of 100 μL. Plates were then placed in an incubator ([…], model no. IMP180, Thermo Fisher Scientific, USA) at 20 °C for 40 h. […] Over 15 min, disturbance of an infrared beam in individual wells was recorded as an 'activity count'. Raw 'activity counts' for each well were normalised to the negative controls. The compound concentrations were log10-transformed and fitted using a variable slope four-parameter equation, using the ordinary least squares fit model, employing the program Prism (v.9.1.0 GraphPad Software, San Diego, CA, USA).

[3] = test system: adult females of Haemonchus contortus; test: Motility of adult female H. contortus in vitro; format: cell-based; conditions: 40 μM; 24 h of incubation; normalised to negative control
Experimental: Adult H. contortus were collected from the abomasa of sheep infected for 10 weeks, washed extensively with phosphate-buffered saline (PBS, pH 7.4) and subsequently in RPMI 1640 media supplemented with final concentrations of 2 mM L-glutamine, 100 IU/mL of penicillin, 100 μg/mL of streptomycin and 0.25 μg/mL of amphotericin B (Thermo Fisher Scientific, Scoresby, VIC, Australia; this supplemented RPMI was designated RPMI*). Female and male worms were collected and separated immediately prior to compound testing.
The activity of UMW-9729 and six derivatives (12, 14, 15, 16, 18 and 25) was assessed on adult female specimens of H. contortus in an established assay ([Taki et al., 2020]). The compound was added in triplicate to the wells of a 24-well plate (cat. no. 3524; Corning, USA) at a concentration of 40 μM in 500 μL of RPMI* (RPMI supplemented with final concentrations of 2 mM L-glutamine, 100 IU/mL of penicillin, 100 μg/mL of streptomycin and 0.25 μg/mL of amphotericin B; Thermo Fisher Scientific, Scoresby, VIC, Australia). Two positive-control compounds, monepantel and moxidectin, and a negative control containing 1 % (v/v) DMSO only, were included in triplicates on the same plate. Three adult females were added to each of the triplicate wells containing either the test compound or the controls and placed in a CO2 incubator (10 % (v/v) CO2, 40 °C, >90 % relative humidity) for 1 day. A video recording (30 s) of each well was taken at 3 h, 6 h, 12 h and 24 h during the total incubation period to assess the reduction in worm motility, which was scored as 3 (“good”), 2 (“low”), 1 (“very low”) or 0 (“no movement”; cf. [Taki et al., 2020]). For each test or control compound, the motility scores for each of the triplicate wells were calculated, normalised with reference to the negative control (100 % motility) and recorded as a percentage.

[4] = Haemonchus contortus, 90 h, xL3s, 90 h incubation (table title), three independent assays in triplicate
[5] = Caenorhabditis elegans, 40 h, young adults, 40 h incubation, three independent assays in triplicate
[6] = xL3s, 90 h incubation (table title), three independent assays in triplicate
[7] = young adults, 40 h incubation, three independent assays in triplicate

| SMILES | IC50 [1, 4] [µM] | IC50 [2, 5] [µM] | further results |
| --- | --- | --- | --- |
| COc1ccccc1C#Cc1ccc(-c2ccn[nH]2)cc1 [Compound 6] | > 40 | > 40 | – |
| FC(F)(F)c1ccccc1C#Cc1ccc(-c2ccn[nH]2)cc1 [Compound 7] | > 40 | > 40 | – |
| Fc1ccccc1C#Cc1ccc(-c2ccn[nH]2)cc1 [Compound 8] | 12 | 3.7 ± 1.9 | IC50 [1, 6]: 13 ± 4.5 µM |
| Clc1ccccc1C#Cc1ccc(-c2ccn[nH]2)cc1 [Compound 9] | 4.8 ± 0.7 | > 40 | – |
| C(#Cc1ccccn1)c1ccc(-c2ccn[nH]2)cc1 [Compound 10] | 8.7 ± 2.5 | > 40 | Worm motility IC50 ± SD, C. elegans young adults [2, 7]: loss of compound activity |
| Cc1cccc(C#Cc2ccc(-c3ccn[nH]3)cc2)c1 [Compound 11] | 13 ± 5.7 | > 40 | Worm motility IC50 ± SD, C. elegans young adults [2, 7]: lost activity |
| FC(F)(F)c1cccc(C#Cc2ccc(-c3ccn[nH]3)cc2)c1 [Compound 12] | 8.2 ± 1.9 | 12 ± 7 | reduction of worm motility, adult females of H. contortus [3]: 29% |
| FC(F)(F)Oc1cccc(C#Cc2ccc(-c3ccn[nH]3)cc2)c1 [Compound 13] | > 40 | > 40 | – |
| Fc1cccc(C#Cc2ccc(-c3ccn[nH]3)cc2)c1 [Compound 14] | 5.2 ± 0.9 | 9 | IC50 [2, 7]: 8 ± 1.8 µM; reduction of worm motility, adult females of H. contortus [3]: 29% |
| Clc1cccc(C#Cc2ccc(-c3ccn[nH]3)cc2)c1 [Compound 15] | > 40 | 8.2 ± 7.8 | Worm motility IC50 ± SD, H. contortus xL3s [1, 6]: loss of activity; fold increased activity compared to UMW-9729, C. elegans ([2]; ratio of motility IC50 to parent UMW-9729): ~2 fold; reduction of worm motility, adult females of H. contortus [3]: 23% |
| C(#Cc1cccnc1)c1ccc(-c2ccn[nH]2)cc1 [Compound 16] | 6.8 ± 0.1 | > 40 | Worm motility IC50 ± SD, H. contortus xL3s [1, 6]: equipotent; Worm motility IC50 ± SD, C. elegans young adults [2, 7]: loss of activity; reduction of worm motility, adult females of H. contortus [3]: 15% |
| Oc1cccc(C#Cc2ccc(-c3ccn[nH]3)cc2)c1 [Compound 17] | 29 ± 12 | 25 ± 7 | – |
| Cc1ccc(C#Cc2ccc(-c3ccn[nH]3)cc2)cc1 [Compound 18] | 2 ± 0.1 | > 40 | fold increased activity compared to UMW-9729, H. contortus larvae ([1]; ratio of xL3 motility IC50 to parent UMW-9729): 3 fold; Worm motility IC50 ± SD, C. elegans young adults [2, 7]: inactive; reduction of worm motility, adult females of H. contortus [3]: 15% |
| COc1ccc(C#Cc2ccc(-c3ccn[nH]3)cc2)cc1 [Compound 19] | > 40 | > 40 | Worm motility IC50 ± SD, H. contortus xL3s [1, 6]: inactive |
| Clc1ccc(C#Cc2ccc(-c3ccn[nH]3)cc2)cc1 [Compound 20] | 3.7 ± 1.1 | > 40 | – |
| N#Cc1ccc(C#Cc2ccc(-c3ccn[nH]3)cc2)cc1 [Compound 21] | 6.7 ± 4.2 | > 40 | – |
| C(#Cc1ccc(-c2ccn[nH]2)cc1)c1ccncc1 [Compound 22] | > 40 | > 40 | Worm motility IC50 ± SD, H. contortus xL3s [1, 6]: inactive |
| C[Si](C)(C)C#Cc1ccc(-c2ccn[nH]2)cc1 [Compound 23] | – | – | IC50 ([1]; Haemonchus contortus, 90 h): > 40 µM; Worm motility IC50 ± SD, H. contortus xL3s [1, 6]: complete loss of activity; IC50 ([2]; Caenorhabditis elegans, 40 h): > 40 µM |
| C(#Cc1ccc(-c2ccn[nH]2)cn1)c1ccccc1 [Compound 24] | 24 ± 8.5 | > 40 | Worm motility IC50 ± SD, C. elegans young adults [2, 7]: loss in activity |
| C(#Cc1cccc(-c2ccn[nH]2)c1)c1ccccc1 [Compound 26, 5-(3-(phenylethynyl)phenyl)-1H-pyrazole] | > 40 | > 40 | Worm motility IC50 ± SD, H. contortus xL3s [1, 6]: complete loss of activity |
| C#Cc1ccc(-c2ccn[nH]2)cc1 [Compound 27, 5-(4-ethynylphenyl)-1H-pyrazole] | > 40 | > 40 | Worm motility IC50 ± SD, H. contortus xL3s [1, 6]: complete loss of activity |
| c1ccc(CCc2ccc(-c3ccn[nH]3)cc2)cc1 [Compound 28] | 16 ± 4.9 | > 40 | – |
| Cc1nc(-c2ccc(C#Cc3ccccc3)cc2)no1 [Compound 32] | 5.1 ± 0.5 | 18 ± 11 | – |
| C[C@](C#N)(COc1cc(C#N)ccc1C(F)(F)F)NC(=O)c1ccc(SC(F)(F)F)cc1 [Monepantel, monepantel, reference compound] | 0.6 ± 0.2 | 0.03 ± 0.01 | – |
| CO/N=C1\C[C@]2(C[C@@H]3C[C@@H](C/C=C(\C)C[C@@H](C)/C=C/C=C4\CO[C@@H]5[C@H](O)C(C)=C[C@@H](C(=O)O3)[C@]45O)O2)O[C@H](/C(C)=C/C(C)C)[C@H]1C [Moxidectin, moxidectin, reference compound] | 18 ± 9.1 | 0.003 | – |

Reference: article PMC10992699, “Comparative structure activity and target exploration of 1,2-diphenylethynes in Haemonchus contortus and Caenorhabditis elegans” (International Journal for Parasitology: Drugs and Drug …, 2024)
